Results: patent publication US11680068B2, “Compounds useful as RET inhibitors” (Cancer Research Technology Limited, priority 2017, dated 2023)

biological target: RET (Homo sapiens (Human), UniProt P07949); experiment: RET enzyme assay (CisBio HTRF kinEASE); assay type: biochemical; conditions: tested compounds listed as lacking activity
Sequence (P07949 658-1114): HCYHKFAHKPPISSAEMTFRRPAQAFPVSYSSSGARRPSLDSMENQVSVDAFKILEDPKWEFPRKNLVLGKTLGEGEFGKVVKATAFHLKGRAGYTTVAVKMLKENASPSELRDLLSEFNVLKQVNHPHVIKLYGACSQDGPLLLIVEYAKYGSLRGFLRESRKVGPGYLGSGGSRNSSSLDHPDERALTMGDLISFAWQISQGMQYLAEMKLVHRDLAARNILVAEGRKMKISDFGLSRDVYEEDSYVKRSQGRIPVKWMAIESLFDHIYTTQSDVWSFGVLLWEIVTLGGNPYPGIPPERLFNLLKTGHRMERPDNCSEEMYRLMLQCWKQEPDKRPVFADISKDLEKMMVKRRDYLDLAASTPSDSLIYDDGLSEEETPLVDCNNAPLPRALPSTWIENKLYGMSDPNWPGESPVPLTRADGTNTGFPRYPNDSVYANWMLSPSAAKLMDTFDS

Desired activity in the assays described in Example 51, did not exhibit the desired activity:
CC(C)(C)n1nc(-c2ccc3cc(C(=O)O)[nH]c3c2)c2c(N)ncnc21 [6-(4-amino-1-tert-butyl-pyrazolo[3,4-d]pyrimidin-3-yl)-1H-indole-2-carboxylic acid]
CC(C)(C)n1nc(-c2ccc3cc(C(=O)Nc4nnc(C(F)(F)F)s4)[nH]c3c2)c2c(N)ncnc21 [6-(4-amino-1-tert-butyl-pyrazolo[3,4-d]pyrimidin-3-yl)-N-[5-(trifluoromethyl)-1,3,4-thiadiazol-2-yl]-1H-indole-2-carboxamide]
CNC(=O)c1cc2ccc(-c3n[nH]c4ncnc(N)c34)cc2[nH]1 [6-(4-amino-1H-pyrazolo[3,4-d]pyrimidin-3-yl)-N-methyl-1H-indole-2-carboxamide]
CNC(=O)c1cc2ccc(-c3nn(CCO)c4ncnc(N)c34)cc2[nH]1 [6-[4-amino-1-(2-hydroxyethyl)pyrazolo[3,4-d]pyrimidin-3-yl]-N-methyl-1H-indole-2-carboxamide]
CNC(=O)c1cc2ccc(-c3nn(CC(=O)N(C)C)c4ncnc(N)c34)cc2[nH]1 [6-[4-amino-1-[2-(dimethylamino)-2-oxo-ethyl]pyrazolo[3,4-d]pyrimidin-3-yl]-N-methyl-1H-indole-2-carboxamide]
CNC(=O)c1cc2ccc(-c3nn(CCC(=O)N(C)C)c4ncnc(N)c34)cc2[nH]1 [6-[4-amino-1-[3-(dimethylamino)-3-oxo-propyl]pyrazolo[3,4-d]pyrimidin-3-yl]-N-methyl-1H-indole-2-carboxamide]
CCNC(=O)c1cc2ccc(-c3nn([C@H]4CC[C@@H](O)C4)c4ncnc(NC)c34)cc2[nH]1 [N-ethyl-6-[1-[(1S,3R)-3-hydroxycyclopentyl]-4-(methylamino)pyrazolo[3,4-d]pyrimidin-3-yl]-1H-indole-2-carboxamide]
